From patent publication US20030176475A1, “Therapeutically useful new salts of cck inhibitors, process for the preparation thereof and pharmaceutical preparations containing them” (priority 2000, published 2003)

Experiments:
[1] = Hygroscopicity and chemical stability of the salts; type: physicochemical
Source text: The mono- and di-sodium salts, as well as the mono- and di-potassium salts and their hydrates are highly hygroscopic and chemically not stable compounds namely the compound of the formula (II) decomposes at the amide bond giving rise to decomposition products of formulae (IV) (FIG. 6) and (V) (FIG. 7).

[2] = biological target: T1, cholecystokinin A (CCK-A) (Rattus norvegicus, UniProt P30551); details: comparison in words; cited from earlier work
T1 construct: from tissue; host or cells: living rat (in vivo, oral dosing; gastric emptying)
T1 sequence (P30551 1-444): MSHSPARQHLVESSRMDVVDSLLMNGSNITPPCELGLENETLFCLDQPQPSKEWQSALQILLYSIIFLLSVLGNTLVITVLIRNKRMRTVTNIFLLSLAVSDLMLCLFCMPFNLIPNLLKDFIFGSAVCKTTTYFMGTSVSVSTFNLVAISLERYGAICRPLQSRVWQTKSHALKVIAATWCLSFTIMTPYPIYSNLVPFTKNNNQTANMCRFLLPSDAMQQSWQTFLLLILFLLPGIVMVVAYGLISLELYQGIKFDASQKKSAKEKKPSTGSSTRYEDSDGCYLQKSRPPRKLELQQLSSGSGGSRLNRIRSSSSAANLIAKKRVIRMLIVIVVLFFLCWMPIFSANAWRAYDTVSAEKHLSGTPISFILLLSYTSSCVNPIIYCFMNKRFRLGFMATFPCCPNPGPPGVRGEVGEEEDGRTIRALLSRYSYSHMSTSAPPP

Row | SMILES | melting point | hygroscopicity [1] | chemical stability ([1]; decomposition at the amide bond to products of formulae (IV) and (V)) | ED50 of prior salts compared with the 34 μg/kg p.o. of the compound of the invention [2]
1 | CCNCC.COc1cc(-c2nc(NC(=O)c3cc4cc(C)cc(C)c4n3CC(=O)O)sc2CCC2CCCCC2)c(OC)cc1Cl | 209.4 to 210.7 °C |  |  | 
2 | COc1cc(-c2nc(NC(=O)c3cc4cc(C)cc(C)c4n3CC(=O)O)sc2CCC2CCCCC2)c(OC)cc1Cl.NCCO.O (hydrate or solvate) | 166 to 167 °C |  |  | 
3 | COc1cc(-c2nc(NC(=O)c3cc4cc(C)cc(C)c4n3CC(=O)O)sc2CCC2CCCCC2)c(OC)cc1Cl.NCCO [ethanolamine salt, 2-[[[4-(4-chloro-2,5-dimethoxyphenyl)-5-(2-cyclohexylethyl)-2-thiazolyl]amino]carbonyl]-5,7-dimethyl-1H-indol-1-acetic Acid Ethanolamine Salt] | 208 to 210 °C | non-hygroscopic | chemically stable | 
4 | Nc1cc(Cl)nc(C(=O)[O-])c1Cl.[K+] [potassium salt] |  |  |  | in the same order
